What was measured:
[1] = mice, 360 mg/kg iv
[2] = system: Collagen Type II (CII) induced arthritis in rats; assay: Preventive effect on Collagen Type II (CII) induced arthritis in rats; type: in vivo, Rat, SD strain
Procedure: Inflammation-induced agent: Collagen Type II was dissolved in 0.1 mol/L acetic acid to make final concentration be 2 mg/ml collagen solution, and held in 4° C. overnight. The Collagen Type II solution was added to cold Freund's Adjuvant Incomplete by drops (Collagen Type II: Freund's Adjuvant Incomplete=1:1) on the next day, emulsified completely (Type II Collagen solution: Freund's Adjuvant Incomplete=1:1), and the final concentration of Collagen Type II was 1 mg/ml. The Collagen Type II emulsion was reserved in a refrigerator at 4° C.
Immune method: Each rat was immunized by being injected subcutaneously at 5 points on the back with 0.1 ml emulsion in each point, total of […] (contained 0.5 mg Collagen Type II), and immunized again in the same way 7 days later. An emulsion of 0.1 mol/L acetic acid and Freund's Adjuvant Incomplete was injected in control group. The swell values of the arthrosis in right hind ankle and foot were measured respectively by using a hydroplethismometer before injection and 20 days after immunization.
The Collagen Type II solution, which had been dissolved in acetic acid and held overnight, was adjusted to concentration 2 mg/ml, then added by drops slowly to Freund's Adjuvant Incomplete in proportion of 1:1. After the mixture was emulsified completely, each rat was injected subcutaneously at 5 points on the back with 0.1 ml emulsion in each point (total 0.5 ml in each rat, containing 0.5 mg Collagen Type II) for the first immunization. 7 days later, the second immunization was repeated in the same way.
The animals were divided into large dose group: Ginsenoside Compound-K, 10 mg/kg, iv, medium dose group: Ginsenoside Compound-K, 5 mg/kg, iv, small dose group: Ginsenoside Compound-K, 2.5 mg/kg, iv, Tripterygium Wilfordii Hook group: 1.5 mg/kg, po-, Enbrel group: 9 mg/kg, sc and blank control group: physiological saline 10 mg/kg, iv. The animals of administration groups were administered at the first immunization and stopped administering 8 days after the first immunization. The swell value of arthrosis in ankle and foot was measured by using hydroplethismometer before immunization and on day 20, 22, 24, 27 and 29 after the first immunization respectively. Swell rate and inhibition rate were calculated by the same method as the foregoing. Differences among groups were compared with t test. When the treatment finished, the arthroses in ankle and foot were taken for pathological examination.

[3] = system: carrageenan-induced acute inflammation in rats; assay: Carrageenan-induced paw edema in rats; type: in vivo, Rat, SD strain
Procedure: Animals were firstly divided into large dose group: 10 mg/kg, iv, medium dose group: 5 mg/kg, iv, small dose group: 2.5 mg/kg, iv, an Indomethacin group: 1 mg/kg, po and a blank control group: physiological saline 10 mg/kg, iv. The animals were administered by the foregoing method for 3 days. The volume of the right hind paw of the rats was measured using hydroplethismometer before inflammation induced. 1 hour after the last administration, 0.1 ml 1% carrageenan was injected into the plantar surface of the right hind paw in order to induce inflammation. The volume of the right hind paw of the rats was measured by hydroplethismometer every other hour thereafter respectively. Swell rate and inhibition rate were calculated by the same method as above. Differences among groups were compared with t test.

CC(C)=CCC[C@](C)(O[C@@H]1O[C@H](CO)[C@@H](O)[C@H](O)[C@H]1O)[C@H]1CC[C@]2(C)[C@@H]1[C@H](O)C[C@@H]1[C@@]3(C)CC[C@H](O)C(C)(C)[C@@H]3CC[C@]12C [Ginsenoside Compound-K, ginsenoside Compound-K]
behaviour after intravenous injection [1]: their act was normal and no behavior out of the way was observed
swell value ([2]; 2.5 mg/kg iv, 0 day): 1.09 ± 0.04 mL
inhibition rate ([2]; 2.5 mg/kg iv, 20 day): <23.26> %
swell rate ([2]; 2.5 mg/kg iv, 20 day): (40.29 ± 18.03) %
swell value ([2]; 2.5 mg/kg iv, 20 day): 1.39 ± 0.24 mL
inhibition rate ([2]; 2.5 mg/kg iv, 22 day): <24.39> %
swell rate ([2]; 2.5 mg/kg iv, 22 day): (38.98 ± 18.96) %
swell value ([2]; 2.5 mg/kg iv, 22 day): 1.38 ± 0.24 mL
inhibition rate ([2]; 2.5 mg/kg iv, 24 day): <25.92> %
swell rate ([2]; 2.5 mg/kg iv, 24 day): (38.92 ± 15.07) %
swell value ([2]; 2.5 mg/kg iv, 24 day): 1.37 ± 0.24 mL
inhibition rate ([2]; 2.5 mg/kg iv, 27 day): <27.08> %
swell rate ([2]; 2.5 mg/kg iv, 27 day): (36.93 ± 13.02) %
swell value ([2]; 2.5 mg/kg iv, 27 day): 1.35 ± 0.22 mL
inhibition rate ([2]; 2.5 mg/kg iv, 29 day): <27.60> %
swell rate ([2]; 2.5 mg/kg iv, 29 day): (31.75 ± 13.70) %
swell value ([2]; 2.5 mg/kg iv, 29 day): 1.33 ± 0.17 mL
swell value ([2]; 5 mg/kg iv, 0 day): 1.11 ± 0.06 mL
inhibition rate ([2]; 5 mg/kg iv, 20 day): <29.01> %
swell rate ([2]; 5 mg/kg iv, 20 day): (37.27 ± 15.30) %
swell value ([2]; 5 mg/kg iv, 20 day): 1.43 ± 0.23 mL
inhibition rate ([2]; 5 mg/kg iv, 22 day): <32.11> %
swell rate ([2]; 5 mg/kg iv, 22 day): (35.00 ± 15.12) %
swell value ([2]; 5 mg/kg iv, 22 day): 1.41 ± 0.22 mL
inhibition rate ([2]; 5 mg/kg iv, 24 day): <31.56> %
swell rate ([2]; 5 mg/kg iv, 24 day): (35.95 ± 11.21) %
swell value ([2]; 5 mg/kg iv, 24 day): 1.45 ± 0.17 mL
inhibition rate ([2]; 5 mg/kg iv, 27 day): <31.57> %
swell rate ([2]; 5 mg/kg iv, 27 day): (34.66 ± 13.01) %
swell value ([2]; 5 mg/kg iv, 27 day): 1.41 ± 0.23 mL
inhibition rate ([2]; 5 mg/kg iv, 29 day): <29.04> %
swell rate ([2]; 5 mg/kg iv, 29 day): (31.12 ± 13.81) %
swell value ([2]; 5 mg/kg iv, 29 day): 1.39 ± 0.18 mL
swell value ([2]; 10 mg/kg iv, 0 day): 1.08 ± 0.07 mL
inhibition rate ([2]; 10 mg/kg iv, 20 day): <32.97> %
swell rate ([2]; 10 mg/kg iv, 20 day): (35.19 ± 19.75) %
swell value ([2]; 10 mg/kg iv, 20 day): 1.37 ± 0.26 mL
inhibition rate ([2]; 10 mg/kg iv, 22 day): <47.51> %
swell rate ([2]; 10 mg/kg iv, 22 day): (27.06 ± 19.03) %
swell value ([2]; 10 mg/kg iv, 22 day): 1.30 ± 0.23 mL
inhibition rate ([2]; 10 mg/kg iv, 24 day): <48.29> %
swell rate ([2]; 10 mg/kg iv, 24 day): (27.16 ± 16.39) %
swell value ([2]; 10 mg/kg iv, 24 day): 1.31 ± 0.21 mL
inhibition rate ([2]; 10 mg/kg iv, 27 day): <44.61> %
swell rate ([2]; 10 mg/kg iv, 27 day): (28.05 ± 14.52) %
swell value ([2]; 10 mg/kg iv, 27 day): 1.32 ± 0.19 mL
inhibition rate ([2]; 10 mg/kg iv, 29 day): <34.19> %
swell rate ([2]; 10 mg/kg iv, 29 day): (28.86 ± 19.06) %
swell value ([2]; 10 mg/kg iv, 29 day): 1.32 ± 0.23 mL
overall preventive effect on Collagen Type II induced arthritis ([2]; rats, 10, 5, 2.5 mg/kg iv): able to prevent Collagen Type II induced arthritis
swell value ([3]; 2.5 mg/kg iv, 0 h): 1.33 ± 0.08 mL
inhibition rate ([3]; 2.5 mg/kg iv, 1 h): <13.97> %
swell rate ([3]; 2.5 mg/kg iv, 1 h): (20.22 ± 9.99) %
swell value ([3]; 2.5 mg/kg iv, 1 h): 1.59 ± 0.08 mL
inhibition rate ([3]; 2.5 mg/kg iv, 2 h): <8.80> %
swell rate ([3]; 2.5 mg/kg iv, 2 h): (29.40 ± 12.71) %
swell value ([3]; 2.5 mg/kg iv, 2 h): 1.71 ± 0.13 mL
inhibition rate ([3]; 2.5 mg/kg iv, 3 h): <16.54> %
swell rate ([3]; 2.5 mg/kg iv, 3 h): (34.80 ± 14.01) %
swell value ([3]; 2.5 mg/kg iv, 3 h): 1.79 ± 0.14 mL
inhibition rate ([3]; 2.5 mg/kg iv, 4 h): <24.08> %
swell rate ([3]; 2.5 mg/kg iv, 4 h): (29.49 ± 13.86) %
swell value ([3]; 2.5 mg/kg iv, 4 h): 1.71 ± 0.12 mL
inhibition rate ([3]; 2.5 mg/kg iv, 5 h): <15.78> %
swell rate ([3]; 2.5 mg/kg iv, 5 h): (31.22 ± 14.12) %
swell value ([3]; 2.5 mg/kg iv, 5 h): 1.74 ± 0.12 mL
swell value ([3]; 5 mg/kg iv, 0 h): 1.39 ± 0.12 mL
inhibition rate ([3]; 5 mg/kg iv, 1 h): <49.51> %
swell rate ([3]; 5 mg/kg iv, 1 h): (11.87 ± 6.23) %
swell value ([3]; 5 mg/kg iv, 1 h): 1.55 ± 0.11 mL
inhibition rate ([3]; 5 mg/kg iv, 2 h): <42.44> %
swell rate ([3]; 5 mg/kg iv, 2 h): (18.56 ± 9.77) %
swell value ([3]; 5 mg/kg iv, 2 h): 1.64 ± 0.09 mL
inhibition rate ([3]; 5 mg/kg iv, 3 h): <32.62> %
swell rate ([3]; 5 mg/kg iv, 3 h): (28.09 ± 11.34) %
swell value ([3]; 5 mg/kg iv, 3 h): 1.77 ± 0.12 mL
inhibition rate ([3]; 5 mg/kg iv, 4 h): <48.22> %
swell rate ([3]; 5 mg/kg iv, 4 h): (20.11 ± 11.20) %
swell value ([3]; 5 mg/kg iv, 4 h): 1.66 ± 0.13 mL
inhibition rate ([3]; 5 mg/kg iv, 5 h): <53.80> %
swell rate ([3]; 5 mg/kg iv, 5 h): (17.13 ± 10.13) %
swell value ([3]; 5 mg/kg iv, 5 h): 1.62 ± 0.11 mL
swell value ([3]; 10 mg/kg iv, 0 h): 1.42 ± 0.10 mL
inhibition rate ([3]; 10 mg/kg iv, 1 h): <72.87> %
swell rate ([3]; 10 mg/kg iv, 1 h): (6.38 ± 7.44) %
swell value ([3]; 10 mg/kg iv, 1 h): 1.51 ± 0.10 mL
inhibition rate ([3]; 10 mg/kg iv, 2 h): <56.96> %
swell rate ([3]; 10 mg/kg iv, 2 h): (13.87 ± 8.55) %
swell value ([3]; 10 mg/kg iv, 2 h): 1.62 ± 0.11 mL
inhibition rate ([3]; 10 mg/kg iv, 3 h): <61.49> %
swell rate ([3]; 10 mg/kg iv, 3 h): (16.06 ± 12.41) %
swell value ([3]; 10 mg/kg iv, 3 h): 1.65 ± 0.16 mL
inhibition rate ([3]; 10 mg/kg iv, 4 h): <70.38> %
swell rate ([3]; 10 mg/kg iv, 4 h): (11.51 ± 9.76) %
swell value ([3]; 10 mg/kg iv, 4 h): 1.58 ± 0.14 mL
inhibition rate ([3]; 10 mg/kg iv, 5 h): <78.23> %
swell rate ([3]; 10 mg/kg iv, 5 h): (8.07 ± 10.88) %
swell value ([3]; 10 mg/kg iv, 5 h): 1.53 ± 0.12 mL
overall effect on carrageenan-induced acute inflammation ([3]; rats, 10, 5, 2.5 mg/kg iv): able to inhibit carrageenan-induced acute inflammation in rats obviously

Reference: US20090281049A1, “New use of ginsenoside compound-k in manufacturing medicaments” (priority 2006, published 2009)
